Literature values as cited in PMC6311893, “Computational prediction of plasma protein binding of cyclic peptides from small molecule experimental data using sparse modeling techniques” (BMC Bioinformatics, 2018).

Test system: plasma protein
Conditions: fraction bound to plasma protein; small molecule dataset, sheet 1-SM (Set Dte = test, Dtr = training); ref Ingle et al.; cited from earlier work

Row | Compound | PPB (fb)
1 | CC1OC2(CS1)CN1CCC2CC1 (centres unmarked) [cevimeline] | 0.15
2 | CCOc1ccc2ccccc2c1C(=O)N[C@@H]1C(=O)N2[C@@H]1SC(C)(C)[C@@H]2C(=O)O [Nafcillin] | 0.88
3 | Cc1ccc(-c2cc(C(F)(F)F)nn2-c2ccc(S(N)(=O)=O)cc2)cc1 [celecoxib] | 0.97
4 | C[C@@H](O)[C@H]1C(=O)N2C(C(=O)O)=C(S[C@H]3C[C@@H](C(=O)N4CC[C@H](NC(=O)CNC(=N)N)C4)N(C)C3)[C@H](C)[C@H]12 [Tomopenem] | 0.09
5 | COc1ccc(CCNCC(O)COc2cccc(C)c2)cc1OC (centres unmarked) [Bevantolol] | 0.97
6 | CNCCCC1c2ccccc2C=Cc2ccccc21 [protriptyline] | 0.92
7 | O=C1CCC(Cc2ccc(O)c(O)c2)O1 (centres unmarked) | 0.35
8 | C[C@]12CCC(=O)C=C1C=C[C@@H]1[C@@H]2CC[C@@]2(C)[C@H]1CC[C@@]2(O)CCC(=O)O [canrenoate] | 0.94
9 | C#CC1(O)CC[C@H]2[C@@H]3CCC4=CC(=O)CC[C@@H]4[C@H]3CC[C@@]21CC (some centres unmarked) [norgestrel] | 0.97
10 | COC(=O)[C@H](c1ccccc1Cl)N1CCc2sccc2C1 [clopidogrel] | 0.98
11 | NC(=O)N1c2ccccc2CC(O)c2ccccc21 (centres unmarked) [10-hydroxycarbazepine] | 0.62
12 | CC1(C)SC2C(NC(=O)C(Cl)c3cccc(Cl)c3)C(=O)N2C1C(=O)O (centres unmarked) [penicillin23] | 0.94
13 | CCc1c2c(nc3ccc(OC(=O)N4CCC(N5CCCCC5)CC4)cc13)-c1cc3c(c(=O)n1C2)COC(=O)[C@]3(O)CC [Irinotecan] | 0.57
14 | C[C@](N)(Cc1ccc(O)c(O)c1)C(=O)O [Methyldopa] | 0.13
15 | O=C(O)COC(=O)Cc1ccccc1Nc1c(Cl)cccc1Cl [aceclofenac] | 0.99
16 | CCOc1nc2cccc(C(=O)O)c2n1Cc1ccc(-c2ccccc2-c2nnn[nH]2)cc1 [candesartan] | 0.99
17 | COc1ccc(-n2cc(C(=O)O)c(=O)c3cc(F)c(N4CCNCC4)cc32)cc1 [5c(p-OCH3)] | 0.31

Same assay, conditions: fraction bound to plasma protein; small molecule dataset, sheet 1-SM, Set Dtr; ref Ingle et al.; cited from earlier work

Row | Compound | PPB (fb)
18 | CN1[C@@H]2CC[C@H]1C[C@@H](OC(=O)c1c[nH]c3ccccc13)C2 [tropisetron] | 0.7
19 | COc1cccc2c1C(=O)c1c(O)c3c(c(O)c1C2=O)C[C@@](O)(C(=O)CO)C[C@@H]3O[C@H]1C[C@H](N)[C@H](O)[C@H](C)O1 [Doxorubicin] | 0.73
20 | CC(C)NCC(O)COc1cccc2[nH]ccc12 (centres unmarked) [Pindolol] | 0.48
21 | C[C@H]1[C@H](NC(=O)/C(=N\OC(C)(C)C(=O)O)c2csc(N)n2)C(=O)N1S(=O)(=O)O [Aztreonam] | 0.58
22 | CN1C2CCCC1CC(NC(=O)c1nn(C)c3ccccc13)C2 (centres unmarked) [Granisetron] | 0.65
23 | CCOc1ccc(NC(C)=O)cc1 [Phenacetin] | 0.41
24 | O=c1c(O)c(-c2ccc(O)c(O)c2)oc2cc(O)cc(O)c12 [Quercetin] | 0.99
25 | CC(C)[C@H]1CC[C@H](C(=O)N[C@H](Cc2ccccc2)C(=O)O)CC1 [Nateglinide] | 0.98
26 | Cc1nc2c([nH]1)-c1ccccc1N(C(=O)c1ccc(NC(=O)c3ccccc3-c3ccccc3)cc1)CC2 [Conivaptan] | 0.99
27 | N=C(N)NC(=O)Cc1c(Cl)cccc1Cl [Guanfacine] | 0.72
28 | CC(CN(C)C)CN1c2ccccc2Sc2ccccc21 (centres unmarked) [trimeprazine] | 0.85
29 | Cc1c(Cl)cccc1Nc1ccccc1C(=O)O [tolfenamic acid] | 0.99
30 | CS(=O)(=O)OCCCCOS(C)(=O)=O [Busulphan] | 0.04

Same assay, conditions: fraction bound to plasma protein; small molecule dataset, sheet 1-SM; ref Ingle et al.; cited from earlier work

Row | Compound | PPB (fb)
31 | CN(CCCN1c2ccccc2CCc2ccccc21)CC(=O)c1ccc(Cl)cc1 [lofepramine] | 0.99
32 | CC(C)(C)c1ccc(C(O)CCCN2CCC(C(O)(c3ccccc3)c3ccccc3)CC2)cc1 (centres unmarked) [terfenadine] | 0.84
33 | C=CC[C@@H]1/C=C(\C)C[C@H](C)C[C@H](OC)[C@H]2O[C@@](O)(C(=O)C(=O)N3CCCC[C@H]3C(=O)O[C@H](/C(C)=C/[C@@H]3CC[C@@H](O)[C@H](OC)C3)[C@H](C)[C@@H](O)CC1=O)[C@H](C)C[C@@H]2OC [Tacrolimus] | 0.99
34 | NC(=O)N1c2ccccc2CC(=O)c2ccccc21 [oxcarbazepine] | 0.45
35 | O=C(OC1Cc2c(O)cc(O)cc2OC1c1cc(O)c(O)c(O)c1)c1cc(O)c(O)c(O)c1 (centres unmarked) [Epigallocatechin gallate] | 0.91
36 | Nc1ccc(S(=O)(=O)Nc2ncccn2)cc1 [Sulfadiazine] | 0.45
37 | CCn1cc(C(=O)O)c(=O)c2cnc(N3CCNCC3)nc21 [pipemidic acid] | 0.3
38 | Cc1ccc(S(=O)(=O)NC(=O)NN2CC3CCCC3C2)cc1 (centres unmarked) [gliclazide] | 0.91
39 | NC(=O)c1ncn([C@@H]2O[C@H](CO)[C@@H](O)[C@H]2O)n1 [Ribavirin] | 0.02
40 | C#C[C@]1(O)CC[C@H]2[C@@H]3CCC4=CCCC[C@@H]4[C@H]3CC[C@@]21C [lynestrenol] | 0.96
41 | O=C(O)/C=C/c1ccc(O)cc1 [p-coumaric acid] | 0.65
42 | CN(C)S(=O)(=O)C1=CC2C(C=C1)Sc1ccccc1N2CCCN1CCC(CCO)CC1 (centres unmarked) [Pipotiazine] | 0.45
43 | CC(C(=O)O)c1ccc(-c2ccccc2)c(F)c1 (centres unmarked) [flurbiprofen] | 0.99
44 | CCC1(c2ccccc2)C(=O)NCNC1=O [primidone] | 0.2
45 | Clc1ccc2nsnc2c1NC1=NCCN1 [Tizanidine] | 0.3
46 | COC(C(=O)NC1C(=O)N2C1SC(C)(C)C2C(=O)O)c1ccc(Cl)c(F)c1 (centres unmarked) [penicillin44] | 0.83
47 | CCN1CCC[C@H]1CNC(=O)c1c(OC)ccc(Br)c1OC [Remoxipride] | 0.79
48 | CSc1ccc2c(c1)N(CCC1CCCCN1C)c1ccccc1S2 (centres unmarked) [thioridazine] | 0.98
49 | Nc1ccc(O)c(C(=O)O)c1 [mesalamine] | 0.45
50 | CC1(C)SC2C(NC(=O)C(NC(=O)c3ccccn3)c3ccccc3)C(=O)N2C1C(=O)O (centres unmarked) [penicillin36] | 0.63
51 | CCCC(CC)C(CCC)C(=O)NC1C(=O)N2C1SC(C)(C)C2C(=O)O (centres unmarked) [penicillin4] | 0.93
52 | O=C1NC(=O)C(c2ccccc2)(c2ccccc2)N1 [phenytoin] | 0.91

Same assay, conditions: plasma; cited from earlier work

Row | Compound | PPB (fb)
53 | CC(Cc1ccc(O)cc1)NCC(O)c1cc(O)cc(O)c1 (centres unmarked) [Fenoterol] | 0.47
54 | Cc1ccccc1-n1c(C)nc2ccccc2c1=O [methaqualone] | 0.85
55 | CCCCCc1cc(O)c2c(c1)OC(C)(C)C1CCC(C)=CC21 (centres unmarked) [Tetrahydrocannabinol__ D9-] | 0.96
56 | CC[C@@]1(O)C[C@H](O[C@H]2C[C@H](N(C)C)[C@H](O[C@H]3C[C@H](O)[C@H](O[C@H]4CCC(=O)[C@H](C)O4)[C@H](C)O3)[C@H](C)O2)c2c(cc3c(c2O)C(=O)c2c(O)cccc2C3=O)[C@H]1C(=O)OC [aclarubicin] | 0.43
57 | CC/C=C\C/C=C\C/C=C\C/C=C\C/C=C\C/C=C/CCC(=O)O[C@@H](C(=O)O[C@H]1C[C@@]2(O)[C@@H](OC(=O)c3ccccc3)C3[C@](C)(C(=O)[C@H](OC(C)=O)C(=C1C)C2(C)C)[C@@H](O)C[C@H]1OC[C@@]31OC(C)=O)[C@@H](NC(=O)c1ccccc1)c1ccccc1 (some centres unmarked) [DHA Paclitaxel] | 0.9962
58 | COc1cc(CCN)cc(OC)c1OC [mescaline] | 0.15
59 | COC(=O)Nc1nc2ccccc2[nH]1 [carbendazim] | 0.67
